Data on one compound can be found in patent publication US7319094B2, “Increased and sustained in vivo gene expression using a nucleic acid, histone and amphipathic compound composition” (Rhode Island Hospital, priority 2001, dated 2008).

One assay deals with AD7c-NTP. The assay is described as follows: AD7c-NTP expression in stably transfected PNET2 cells (LacSwitch II inducible system), Western blot / MICE assay. Type of assay: cell-based, human. An excerpt:
Prior to the invention, cells stably transfected with AD7c-NTP could not be maintained because of progressive cell death. Therefore, an inducible system of AD7c-NTP expression was established using the LacSwitch II mammalian expression vector (Stratagene, La Jolla, Calif.). PNET2 human CNS neuronal cells were stably transfected with the pCMVLacII vector in which the Lac repressor protein driven by a CMV promoter. The Lac repressor protein is targeted to the nucleus by the nuclear localization sequence. […]
Standard Western blot assays wew used to measure cellular levels of p53, Bcl-2, p21/Waf1, phospho-tau, tau, c-fos, NTP, and activated (phosphorylated) forms of Erk mitogen activated protein (MAP) kinase, amino-terminal c-jun-activated kinase (pJNK), and p38/HOG1. […] Protein concentrations were measured using the BCA assay (Pierce, Rockford, Ill.). Samples containing 60 μg of protein were fractionated by sodium dodecyl sulfate polyacrylamide gel electrophoresis (SDS-PAGE), then transferred to PVDF membranes, and analyzed by Western immunoblotting. Immunoreactivity was detected with horseradish peroxidase conjugated secondary IgG and PicoWest enhanced chemiluminescence reagents (Pierce Chemical Company, Rockford, Ill.). CAT activity was measured using known methods. […]
On the technique in general: In western blotting, separated proteins are transferred to a membrane and probed.

The test system of a further assay is GAPDH. In words: GAPDH immunoreactivity in AD7c-NTP-transfected PNET2 cells, MICE assay. Particulars: IPTG 3 mM. The assay is classed as cell-based, human. An excerpt:
The MICE assay is known in the art (e.g., as described by de la Monte et al., 1999, Biotechniques 26:107301076). The assay is a rapid and sensitive method for quantifying immunoreactivity in 96-well micro-cultures and combines the advantages of the enzyme-linked immunosorbant assay with immunocytochemical staining to permit sensitive in situ quantification of protein expression with values normalized to cell density. The cells were fixed in Histochoice (Amresco, Solon, Ohio), permeabilized with 0.05% saponin in Tris-buffered saline (50 mM Tris, pH 7.5, 0.9% NaCl; TBS), and blocked with Superblock-TBS (Pierce, Rockford, Ill.). […] Immunoreactivity was detected using horseradish peroxidase conjugated secondary antibody (Pierce, Rockford, Ill.) and the TMB soluble peroxidase substrate (Pierce, Rockford, Ill.). Absorbances were measured at 450 nm using a Spectracount plate reader.
To compare the levels of protein expression it was necessary to correct for differences in cell density. […] The absorbances (560 nm) were measured using a Spectracount plate reader (Packard Instrument Company, Meriden, Conn.). The MICE index was calculated from the ratio of the absorbances measured for immunoreactivity and cell density. Coomassie blue absorbance increases linearly with cell density between 1×10^4 and 5×10^5 cells per well. Eight or 16 replicate culture wells were analyzed in each experiment. […]

Regarding `CC(C)S[C@@H]1O[C@H](CO)[C@H](O)[C@H](O)[C@H]1O` [IPTG, Isopropyl-1-[…]-D-thiogalactopyranoside], the “increase in N314-immunoreactive NTP (MICE assay)” value in the assay on AD7c-NTP (IPTG 3 mM, 24 hours of induction) was “greater than five-fold”. Besides, the “optimum concentration for inducing gene expression” value in the assay with AD7c-NTP (PNET2 clones) is 3 mM. In addition, the “levels of GAPDH (MICE assay)” value with GAPDH is “no change”.
